The source of these data is US8536307B2, “Anticalins” (Pieris AG, priority 1997, dated 2013).

Assay [1] deals with anticalin FluC, mutein of Pieris brassicae bilin-binding protein (Bbp): Asn34Ser, Ser35Lys, Val36Asn, Glu37Gly, Gly40Arg, Asn58Arg, His60Thr, Ile69Gln, Leu88Arg (Pieris brassicae, UniProt P09464, E52G/F142H/F83V/G55R/H75T/I84Q/K102S/K110R/K131R/K150M/L103R/N112G/N16D/N36Q/N49S/N73R/Q140L/S50K/V108K/V51N/Y105V/Y129R). Conditions: fluorescence titration, excitation 280 nm, emission 340 nm, 1 μM anticalin, PBS with 1 mM EDTA, pH 7.4, 25° C.; [P]t additionally fitted as a free parameter.

The target in assay [2] is biotinylated synthetic hepatitis C-peptide epitope, peptide fragment no. 59 from the surface protein NS4 of HCV (SEQ ID NO:13) (Hepatitis C virus genotype 1a, UniProt P27958). Nature of the assay: Sandwich-ELISA for detection of hepatitis C peptide epitope. Conditions: ranking of signal strength. (In general: An ELISA detects its analyte on a solid surface through an enzyme-linked reagent.)
Procedure: For the ELISA, the wells in a microtiter plate (ELISA-STRIP, 2×8 wells, KO, F-form, high binding capacity, Greiner) were each filled with 200 μl of a solution of 20 mg/ml HSA in 50 mM NaHCO3 pH 9.6 and were incubated for 1 hour at RT. After removal of the solution, the unoccupied binding sites were saturated with 200 μl 3% w/v BSA in PBS with 0.5% v/v Tween 20 for 1 hour. After washing three times with PBST, 50 μl of the undiluted periplasmic protein extract were filled into the respective first well of a row. 50 μl PBS were first placed into each of the subsequent wells of each row. 50 μl of the periplasmic protein extract were then pipetted into the respective second well, were mixed, and, starting from this, 1:2 dilutions in the subsequent wells were prepared in a stepwise manner. The periplasmic protein extract with the Bbp, which was made using pBBP22 as expression plasmid, served as a control.
After 1 hour incubation at RT washing followed three times with PBST, followed by pipetting of 200 μl of the ligand solution (SEQ ID NO:13, 1 μM in PBST) into each well. […] To this end, 100 μl of a solution of 0.5 mg/ma p-nitrophenylphosphate (Amresco) in AP-buffer were placed in each well and product formation was measured by absorption at 405 nm in a SpectraMax 250 photometer (Molecular Devices) as dA/dt number.

A short description of assay [3]: Fluorescence titration (decrease of intrinsic protein fluorescence) with ligand fluorescein. It counts as binding. The conditions noted are these: measurement for comparison, fluorescein ligands. Here is the method: The ligand-binding characteristics of the anticalins, were then determined by fluorescence titration. Here, the decrease in the intrinsic tyrosine and tryptophan fluorescence of the protein upon complex formation with the ligand was measured. The measurements were made with a fluorescence photometer (MS III, Photon Technology International Inc.) at an excitation wavelength of 280 nm (slit width 5 nm) and emission wavelength of 340 nm (slit width 10 nm). Fluorescein, 4-amino-fluorescein as well as its conjugate with glutaric acid from Example 2 were used as ligands.
PBS with addition of 1 mM EDTA, pH 7.4 (adjusted with NaOH) served as buffer system. […] For FluA and Bbp, the corrected calculated extinction coefficients in the presence of guanidinium chloride according to Gill and von Hippel (Anal. Biochem. 182 (1989), 319-326) of 59755 M^−1 cm^−1 (FluA) as well as 54150 M^−1 cm^−1 (Bbp) were used.
For the measurement, 2 ml of the anticalin solution was applied in a quartz cuvette equipped with a stirring bar and thermostatted at 25° C. in the sample holder of the photometer. […] After every titration step the sample was incubated for 1 minute with stirring for equilibration, and the fluorescence signal was measured as an average value over 10 s. […]
[formula] Here, F is the normalized fluorescence intensity and [P]t the concentration of the anticalin. […]

UniProt P09464, sequence (P09464 other isoform, or with tags, fused parts or gaps with the stated changes): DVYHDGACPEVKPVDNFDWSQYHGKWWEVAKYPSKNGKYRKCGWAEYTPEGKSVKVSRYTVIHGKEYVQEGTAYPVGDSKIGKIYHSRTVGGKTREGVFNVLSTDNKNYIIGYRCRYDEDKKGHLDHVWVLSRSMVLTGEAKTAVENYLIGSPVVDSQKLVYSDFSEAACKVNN

On to `Nc1ccc2c(c1)C(=O)OC21c2ccc(O)cc2Oc2cc(O)ccc21` [4-Aminofluorescein, 4-amino-fluorescein], for which the “Dissociation constant (Kd)” value in assay [1] came to 299 ± 41 nM.

For the molecule `O=C(O)CCCC(=O)Nc1ccc2c(c1)C(=O)OC21c2ccc(O)cc2Oc2cc(O)ccc21` [4-Glutarylamidofluorescein, 4-glutarylamido-fluorescein], the “Dissociation constant (Kd)” value in assay [1] is on record as 78 ± 3 nM.

`O=C1OC2(c3ccc(O)cc3Oc3cc(O)ccc32)c2ccccc21` [Fluorescein, fluorescein]: the “Dissociation constant (Kd)” value in assay [1] amounted to 411 ± 20 nM.

B1: HepC4: Anticalin (Bbp mutein) binding hepatitis C peptide epitope, produced as fusion with Strep-Tag II and albumin-binding domain (protein)
chain: DVYHDGACPEVKPVDNFDWSQYHGKWWEVAKYPQAPGKYGKCGWAEYTPEGKSVKVSPYNVIHGKEYFAEGTAYPVGDSKIGKIYHSWTGGGLTAEWVFNVLSTDNKNYIIGYPCRYDEDKKGHLDPVWVLSRSMVLTGEAKTAVENYLIGSPVVDSQKLVYSDFSEAACKVNNLAEAKVLANRELDKYGVSDYYKNLINNAKTVEGVKALIDEILAALP
modifications: left off: small tags and cut ends
With B1, the “sandwich-ELISA signal in comparison between anticalins” value in assay [2] is “followed by HepC4”.

B2: HepC1: Anticalin (Bbp mutein) binding hepatitis C peptide epitope, produced as fusion with Strep-Tag II and albumin-binding domain (protein)
chain: DVYHDGACPEVKPVDNFDWSQYHGKWWEVAKYPKTKQKYEKCGWAEYTPEGKSVKVSLYHVIHGKEYFFEGTAYPVGDSKIGKIYHSVTAGGFTSEQVFSVLSTDNKNYIIGYACYYDEDKKGHVDFVWVLSRSMVLTGEAKTAVENYLIGSPVVDSQKLVYSDFSEAACKVNNLAEAKVLANRELDKYGVSDYYKNLINNAKTVEGVKALIDEILAALP
modifications: left off: small tags and cut ends
As to B2, in assay [2], the “sandwich-ELISA signal in comparison between anticalins” value was “strongest”.

B3: Bbp: Recombinant bilin-binding protein from Pieris brassicae (modified, encoded on pBBP21/pBBP22), produced as a control (protein)
chain: DVYHDGACPEVKPVDNFDWSQYHGKWWEVAKYPNSVEKYGKCGWAEYTPEGKSVKVSNYHVIHGKEYFIEGTAYPVGDSKIGKIYHSLTYGGVTKENVFNVLSTDNKNYIIGYYCKYDEDKKGHQDFVWVLSRSMVLTGEAKTAVENYLIGSPVVDSQKLVYSDFSEAACKVNNLAEAKVLANRELDKYGVSDYYKNLINNAKTVEGVKALIDEILAALP
modifications: left off: small tags and cut ends
As to B3, the “binding effect in fluorescence titration (dissociation constant)” value in assay [3] was “so weak that a dissociation constant could not be determined”.
